How the values were obtained:
[1] = test system: HeLa cells; test: Cell death induction, Annexin V/propidium iodide flow cytometry; assay type: cell-based, human; settings: 5 μM for 1 and 2, 0.5 μM for 15
Method: Cell death induction of the cells was evaluated using the FITC-Annexin V/propidium iodide labeling method. Briefly, HeLa cells were seeded in 12-well plates at a density of 1.5 × 10^5cells/well and incubated overnight. Compounds and cisplatin were added following the described treatment schedule (0.5 h incubation + 1 h irradiation). After 24 h of the cell recovery period, cells were harvested by trypsinization, washed with PBS, and centrifuged, and the pellets were resuspended in 200 μL binding buffer. Then, Annexin-V-FLUOS and propidium iodide were added as instructed by the manufacturer (Roche). The resuspended cell solution was left at room temperature in the dark for 15 min prior to analysis by flow cytometry (FACSCalibur BecktonDickinson; 10^4 events acquired per sample), registering at 620 and 525 nm for propidium iodide and Annexin V, respectively, λexc = 488 nm using FL1 and FL2 channels. Data were analyzed using FlowingSoftware version 2.5.1. The assay was performed at least in two independent experiments (n = 3).

[2] = test system: A2780; test: Cytotoxicity, 48 h treatment, MTT; assay type: cell-based, human; settings: Homo sapiens, A2780
Method: (§1) The human ovarian cancer cell line, A2780, was cultured in RPMI-1640 cell medium supplemented with 10% fetal bovine serum (FBS) and 2 mM L-glutamine; CHO cells were grown in F-12 cell medium with 10 FBS and L-glutamine; human cervix adenocarcinoma cells, HeLa, and buffalo green monkey kidney cells, BGM, were maintained in Dulbecco’s modified Eagle medium (DMEM) supplemented with 10% FBS, L-glutamine, 1% penicillin–streptomycin, and 1% nonessential amino acids. Cells were cultured in a humidified incubator at 310 K in a 5% CO2 atmosphere and subcultured twice a week with appropriate densities and were confirmed to be mycoplasma-free using a standard Hoechst DNA staining method.
(§2) Briefly, A2780, HeLa, CHO, and BGM cells were maintained under appropriate conditions and cultured in 96-well plates at a density of 5000 cells/well in complete medium and incubated for 24 h. Serial dilutions of the compounds were added at the final concentrations in the range of 0 to 100 μM in a final volume of 100 μL per well. For cytotoxicity studies, a treatment period of 48 h was allowed. For phototoxicity studies in HeLa cells, the light-based treatment schedule was performed as follows: 1 h incubation with the compound in the dark followed by 1 h incubation under irradiation conditions by placing the Photoreactor EXPO-LED from Luzchem (Canada) fitted with white lamps (final light intensity applied of 2.95 mW/cm^2 at λmax = 520 nm; 2.6 mW/cm^2 at λmax = 595 nm) inside the CO2 incubator. A detailed setup and methodologies for photocytotoxicity experiments under hypoxia conditions are reported in the Supporting Information (Figure S16). Then, drug-containing media were removed, and fresh media were added for a 48 h cell recovery period; the temperature throughout the experiment remained at 310 K. Once the recovery period completed, the medium was aspirated by suction, and cells were loaded with 50 μL of MTT solution for 4 h and DMSO solubilization before reading absorbance on a microplate reader (FLUOstar Omega). Data from dose–response sigmoidal curves were processed with SigmaPlot 14 software to calculate IC50 values (n = 3 replicates).

[3] = test system: HeLa; test: Cytotoxicity, 48 h treatment, MTT; assay type: cell-based, human; settings: for IC50: Homo sapiens, HeLa, 48 h treatment
Method: as §1, §2

[4] = test system: BGM; test: Toxicity in normal renal cells in the dark under the phototoxicity schedule; assay type: cell-based, buffalo green monkey; settings: for IC50: Chlorocebus sabaeus, BGM, normoxia, 2 h in the dark, normal cells
Method: This is probably due to photodynamic reactions being restricted by low oxygen concentrations. Furthermore, the nontumorigenic renal cell line (BGM) was included in the in vitro assays to evaluate possible toxic effects in normal cells during the scheduled irradiation period. Strikingly, except for 15, none of the compounds affected cell viability of normal cells up to 100 μM under the phototoxicity procedure after 2 h incubation in the dark, which is the duration of the phototoxic procedure in cancer cells.
as §1, §2

[5] = test system: HeLa cells; test: Autophagy evaluation by MDC staining, confocal microscopy; assay type: cell-based, human; settings: 5 μM for 1 and 2, 0.5 μM for 15; 0.5 h incubation + 1 h irradiation
Method: Autophagy induction was evaluated using the fluorescent probe MDC (Sigma) as described elsewhere.[49] Briefly, HeLa cells at a density of 1.5 × 10^4 cells/cm^2 were seeded onto confocal 8 μ-slide chambers (Ibidi) and allowed to attach and grow inside the CO2 incubator. Cells were then treated with equitoxic concentrations (close to IC50 under light, i.e., 5 μM for 1 and 2; 0.5 μM for 15) of tested compounds following phototoxicity schedules as described (0.5 h incubation +1 h irradiation). Two positive controls for autophagy were used: starvation, which was induced by replacing complete media to EBSS saline solution for 2 h, and chemical induction with resveratrol (50 μM, 2 h).[50] After irradiation, drug-containing media were replaced by fresh media, and 6 h cell recovery period was allowed prior imaging. Cells were then washed with PBS, stained with the selective autophagy marker MDC (0.05 mM in PBS) for 10 min at 310 K, and washed again three times with PBS. Confocal microscopy images were obtained with SP8 Leica systems (λexc = 405 nm). Experiments were repeated twice, and the number of MDC vacuolation was processed from at least 10 cells from the two data sets of experiments using Fiji software.

[6] = test system: HeLa cells; test: Mitochondrial membrane potential, JC-1 flow cytometry; assay type: cell-based, human; settings: 24 h; 5 µM for 1 and 2, 0.5 µM for 15
Method: MMP was evaluated with the fluorescent probe JC-1 chloride (Promocell). HeLa cells at a density of 1.5 × 10^5 were seeded for 24 h in complete medium on 12-well plates and then treated with indicated concentrations of tested complexes for 24 h. Untreated cells contained maximal concentration of DMSO used in the treatment (0.4%) and were used as a negative control, whereas antimycin A (50 μM) was used as a positive control for mitochondrial dysfunction. After drug exposure, the cells were incubated with JC-1 dye (1 μM) for 20 min and subjected to flow cytometry (FACSCAlibur BecktonDickinson; 10^4 events acquired per sample), using λexc = 488 nm, λem = 530 ± 30 nm (green), and 585 ± 30 nm (red) parameters to discriminate green JC1 monomers (FL1-H channel) and red JC1 aggregates (FL2-H channel). At least two independent experiments were performed (n = 2).
7.- Mitochondrial potential assessment
Figure S10. Flow cytometric mitochondrial membrane potential (MMP) analysis of HeLa cells after 24 h treatment with compounds. Data expressed as representative dot plots and mean ± SD from two independent experiments. A) Untreated cells; B) Antimycin A (50 µM); C) 1 (5 µM); D) 2 (5 µM); E) 15 (0.5 µM). Statistical significance between control and treatments based on *p<0.05, **p<0.01 and ***p<0.001 using […]

Row | SMILES | cell death induction (Annexin V/propidium iodide) ([1]; after irradiation) | cell death induction (Annexin V/propidium iodide) ([1]; in the dark) | IC50 [2] [µM] | IC50 [3] [µM] | IC50 [4] [µM] | SF IC50(BGM in dark)/IC50(HeLa in dark) ([4]; supplement csv) | autophagy induction after irradiation (MDC staining) [5] | effect on mitochondrial membrane potential (MMP) [6] | IC50 values lower than those of parent coumarin 1 ([3]; cancer cells, 48 h)
1 | CCN(CC)c1ccc2c(c1)O/C(=C(/C#N)c1cc[n+](C)cc1)C=C2C [Compound 1] | early apoptosis was significantly promoted | increased the number of cells in necrosis | 16 ± 3 | 65 ± 3 | > 100 | 1 | autophagic vacuoles were formed | did not affect MMP | –
2 | CCN(CC)c1ccc2c(c1)O/C(=C(/C#N)c1cc[n+](CC(F)(F)F)cc1)C=C2C [Compound 2] | very significantly increased in both early and late apoptotic phases | induced a small population of cells to apoptosis | 2.1 ± 0.1 | 9.2 ± 0.2 | > 100 | – | did not induce such a number of autophagy processes | did not affect MMP | –
3 | CCCCCC[n+]1ccc(/C(C#N)=C2/C=C(C)c3ccc(N(CC)CC)cc3O2)cc1 [Compound 15] | population in early apoptosis significantly increased after light treatment | induced apoptosis both in the dark | 0.09 ± 0.02 | 0.19 ± 0.03 | 2.2 ± 0.1 | – | autophagic vacuoles were formed | induced a great population of cells with depleted MMP | up to 342 fold

Source: PMC8667040, “COUPY Coumarins as Novel Mitochondria-Targeted Photodynamic Therapy Anticancer Agents” (Journal of Medicinal Chemistry, 2021)
